According to ChEMBL document CHEMBL3044672, “N9- and N7-(Chloromethyl Phenymethyl)Chloropurine Derivatives from , '-Dichloroxylenes: Synthesis and Anticancer Activity” (2005):

Legend:
Type in all cases: functional
[1] = test system: OVCAR-5; assay: Cytotoxicity against Homo sapiens (human) OVCAR5 cells after 48 hr by sulforhodamine B assay; settings: OVCAR-5, 48 h; for CC50: read-out: LC50 (the source's name)
[2] = test system: U-251; assay: Cytotoxicity against Homo sapiens (human) U251 cells after 48 hr by sulforhodamine B assay; settings: U-251, 48 h
[3] = test system: MDA-MB-435; assay: Cytotoxicity against Homo sapiens (human) MDA-MB-435 cells after 48 hr by sulforhodamine B assay; settings: MDA-MB-435, 48 h
[4] = test system: BT-549; assay: Cytotoxicity against Homo sapiens (human) BT549 cells after 48 hr by sulforhodamine B assay; settings: BT-549, 48 h
[5] = test system: SN12C; assay: Cytotoxicity against Homo sapiens (human) SN12C cells after 48 hr by sulforhodamine B assay
[6] = test system: M14; assay: Cytotoxicity against Homo sapiens (human) M14 cells after 48 hr by sulforhodamine B assay; settings: M14, 48 h
[7] = test system: TK-10; assay: Cytotoxicity against Homo sapiens (human) TK10 cells after 48 hr by sulforhodamine B assay; settings: TK-10, 48 h; for CC50: read-out: LC50 (the source's name)
[8] = test system: CAKI-1; assay: Cytotoxicity against Homo sapiens (human) Caki1 cells after 48 hr by sulforhodamine B assay; settings: CAKI-1, 48 h; for CC50: read-out: LC50 (the source's name)
[9] = test system: HOP-92; assay: Cytotoxicity against Homo sapiens (human) HOP92 cells after 48 hr by sulforhodamine B assay; settings: HOP-92, 48 h; for CC50: read-out: LC50 (the source's name)
[10] = test system: NCI-H23; assay: Cytotoxicity against Homo sapiens (human) NCI-H23 cells after 48 hr by sulforhodamine B assay; settings: NCI-H23, 48 h; for CC50: read-out: LC50 (the source's name)
[11] = test system: K562; assay: Cytotoxicity against Homo sapiens (human) K562 cells after 48 hr by sulforhodamine B assay; settings: K562, 48 h; for CC50: read-out: LC50 (the source's name)
[12] = test system: MCF7; assay: Cytotoxicity against Homo sapiens (human) MCF7 cells after 48 hr by sulforhodamine B assay; settings: MCF7, 48 h
[13] = test system: HT-29; assay: Cytotoxicity against Homo sapiens (human) HT-29 cells after 48 hr by sulforhodamine B assay; settings: HT-29, 48 h; for CC50: read-out: LC50 (the source's name)
[14] = test system: SK-MEL-28; assay: Cytotoxicity against Homo sapiens (human) SK-MEL-28 cells after 48 hr by sulforhodamine B assay; settings: SK-MEL-28, 48 h
[15] = test system: MCF7; assay: Cytotoxicity against Homo sapiens (human) MCF7 cells assessed as cell growth at 10^-4 M after 48 hr by Alamar blue assay; settings: MCF7, 48 h, read-out: Activity
[16] = test system: NCI-H226; assay: Cytotoxicity against Homo sapiens (human) NCI-H226 cells after 48 hr by sulforhodamine B assay; settings: NCI-H226, 48 h; for CC50: read-out: LC50 (the source's name)
[17] = test system: OVCAR-8; assay: Cytotoxicity against Homo sapiens (human) OVCAR8 cells after 48 hr by sulforhodamine B assay; settings: OVCAR-8, 48 h
[18] = test system: NCI-H522; assay: Cytotoxicity against Homo sapiens (human) NCI-H522 cells after 48 hr by sulforhodamine B assay; settings: NCI-H522, 48 h; for CC50: read-out: LC50 (the source's name)
[19] = test system: SF-268; assay: Cytotoxicity against Homo sapiens (human) SF268 cells after 48 hr by sulforhodamine B assay; settings: SF-268, 48 h; for CC50: read-out: LC50 (the source's name)
[20] = test system: SNB-19; assay: Cytotoxicity against Homo sapiens (human) SNB19 cells after 48 hr by sulforhodamine B assay; settings: SNB-19, 48 h
[21] = test system: UACC-257; assay: Cytotoxicity against Homo sapiens (human) UACC257 cells after 48 hr by sulforhodamine B assay; settings: UACC-257, 48 h
[22] = test system: SNB-75; assay: Cytotoxicity against Homo sapiens (human) SNB75 cells after 48 hr by sulforhodamine B assay; settings: SNB-75, 48 h; for CC50: read-out: LC50 (the source's name)
[23] = test system: NCI-H460; assay: Cytotoxicity against Homo sapiens (human) NCI-H460 cells assessed as cell growth at 10^-4 M after 48 hr by Alamar blue assay; settings: NCI-H460, 48 h, read-out: Activity
[24] = test system: COLO 205; assay: Cytotoxicity against Homo sapiens (human) COLO205 cells after 48 hr by sulforhodamine B assay; settings: COLO 205, 48 h; for CC50: read-out: LC50 (the source's name)
[25] = test system: Hs-578T; assay: Cytotoxicity against Homo sapiens (human) Hs 578T cells after 48 hr by sulforhodamine B assay
[26] = test system: NCI-H460; assay: Cytotoxicity against Homo sapiens (human) NCI-H460 cells after 48 hr by sulforhodamine B assay; settings: NCI-H460, 48 h; for CC50: read-out: LC50 (the source's name)
[27] = Cytotoxicity against Homo sapiens (human) NCI-ADR-RES cells after 48 hr by sulforhodamine B assay

## Nc1nc(Cl)c2ncn(Cc3cccc(CCl)c3)c2n1
[1]
  GI50: 11 µM
  TGI: 25.1 µM
  CC50: 57.5 µM
[2]
  GI50: 1.82 µM
  LC50 (concentration killing 50% of cells): 9.33 µM
  TGI: 4.07 µM
[3]
  GI50: 3.81 µM
  LC50: 85.1 µM
  TGI: 22.4 µM
[4]
  GI50: 4.07 µM
  LC50 (50% lethal concentration): 58.9 µM
  TGI: 17.4 µM
[5]
  GI50: 4.46 µM
  LC50 (50% lethal concentration): 39.8 µM
  TGI: 15.5 µM
[6]
  GI50: 3.63 µM
  LC50: 41.7 µM
  TGI: 11.7 µM
[7]
  GI50: 2.39 µM
  TGI: 7.08 µM
  CC50: 27.5 µM
[8]
  GI50: 0.24 µM
  TGI: 1.51 µM
  CC50: 15.8 µM
[9]
  GI50: 0.63 µM
  TGI: 38 µM
  CC50: > 100 µM
[10]
  GI50: 2.04 µM
  TGI: 5.01 µM
  CC50: 26.9 µM
[11]
  GI50: 4.36 µM
  TGI: > 100 µM
  CC50: > 100 µM
[12]
  GI50: 2.39 µM
  LC50 (concentration killing 50% of cells): 53.7 µM
  TGI: 9.55 µM
[13]
  GI50: 2.51 µM
  TGI: 9.77 µM
  CC50: 64.6 µM
[14]
  GI50: 4.46 µM
  LC50 (concentration killing 50% of cells): 74.1 µM
  TGI: 19.1 µM
[15]
  growth at 100 µM: 0%
[16]
  GI50: 10.7 µM
  TGI: 42.6 µM
  CC50: > 100 µM
[17]
  GI50: 2.29 µM
  LC50 (concentration killing 50% of cells): 53.7 µM
  TGI: 6.76 µM
[18]
  GI50: 3.31 µM
  TGI: 13.5 µM
  CC50: 81.3 µM
[19]
  GI50: 3.02 µM
  TGI: 10.2 µM
  CC50: 67.6 µM
[20]
  GI50: 3.16 µM
  LC50: 46.8 µM
  TGI: 15.1 µM
[21]
  GI50: 5.75 µM
  LC50 (concentration killing 50% of cells): 49 µM
  TGI: 19.5 µM
[22]
  GI50: 5.75 µM
  TGI: 19.5 µM
  CC50: 51.3 µM
[23]
  growth at 100 µM: 0%
[24]
  GI50: 6.76 µM
  TGI: 27.5 µM
  CC50: 97.7 µM
[25]
  GI50: 11.5 µM
  LC50: > 100 µM
  TGI: 60.2 µM
[26]
  GI50: 4.26 µM
  TGI: 15.8 µM
  CC50: 47.9 µM
[27]
  GI50: 4.89 µM
  LC50 (concentration killing 50% of cells): 75.9 µM
  TGI: 19.9 µM

## ClCc1ccc(Cn2cnc3ncnc(Cl)c32)cc1
[1]
  GI50: 6.3 µM
  TGI: 19.5 µM
  CC50: 45.7 µM
[2]
  GI50: 1.09 µM
  LC50 (concentration killing 50% of cells): 4.78 µM
  TGI: 2.29 µM
[3]
  GI50: 5.88 µM
  LC50: 46.8 µM
  TGI: 19.1 µM
[4]
  GI50: 3.71 µM
  LC50 (50% lethal concentration): 56.2 µM
  TGI: 17 µM
[5]
  GI50: 3.63 µM
  LC50 (50% lethal concentration): 40.7 µM
  TGI: 14.8 µM
[6]
  GI50: 2.75 µM
  LC50: 37.1 µM
  TGI: 13.2 µM
[7]
  GI50: 1.47 µM
  TGI: 2.95 µM
  CC50: 5.75 µM
[8]
  GI50: 1.99 µM
  TGI: 4.46 µM
  CC50: 9.77 µM
[9]
  GI50: 1.17 µM
  TGI: 2.51 µM
  CC50: 5.49 µM
[10]
  GI50: 15.8 µM
  TGI: 30.9 µM
  CC50: 58.9 µM
[11]
  GI50: 3.01 µM
  TGI: > 100 µM
  CC50: > 100 µM
[12]
  GI50: 1.34 µM
  LC50 (concentration killing 50% of cells): 6.45 µM
  TGI: 2.95 µM
[13]
  GI50: 1.23 µM
  TGI: 3.63 µM
  CC50: 56.2 µM
[15]
  growth at 100 µM: 23%
[16]
  GI50: 3.01 µM
  TGI: 12 µM
  CC50: 37.1 µM
[17]
  GI50: 3.16 µM
  LC50 (concentration killing 50% of cells): 56.2 µM
  TGI: 11 µM
[18]
  GI50: 4.26 µM
  TGI: > 100 µM
  CC50: > 100 µM
[19]
  GI50: 1.65 µM
  TGI: 3.38 µM
  CC50: 7.07 µM
[20]
  GI50: 1.69 µM
  LC50: 5.75 µM
  TGI: 3.16 µM
[21]
  GI50: 1.58 µM
  LC50 (concentration killing 50% of cells): 7.76 µM
  TGI: 3.46 µM
[23]
  growth at 100 µM: 0%
[24]
  GI50: 1.9 µM
  TGI: 3.8 µM
  CC50: 7.41 µM
[25]
  GI50: 1.73 µM
  LC50: > 100 µM
  TGI: 4.26 µM
[26]
  GI50: 1.77 µM
  TGI: 4.26 µM
  CC50: 17.4 µM
[27]
  GI50: 1.81 µM
  LC50 (concentration killing 50% of cells): 15.5 µM
  TGI: 4.67 µM

## ClCc1ccccc1Cn1cnc2ncnc(Cl)c21
[1]
  GI50: 2.81 µM
  TGI: 7.24 µM
  CC50: 26.9 µM
[2]
  GI50: 1.9 µM
  LC50 (concentration killing 50% of cells): 10.2 µM
  TGI: 4.36 µM
[3]
  GI50: 1.94 µM
  LC50: 7.58 µM
  TGI: 3.8 µM
[4]
  GI50: 2.45 µM
  LC50 (50% lethal concentration): 25.1 µM
  TGI: 6.02 µM
[5]
  GI50: 2.95 µM
  LC50 (50% lethal concentration): 42.6 µM
  TGI: 8.51 µM
[6]
  GI50: 1.9 µM
  LC50: 27.5 µM
  TGI: 5.12 µM
[7]
  GI50: 3.46 µM
  TGI: 9.54 µM
  CC50: 33.9 µM
[8]
  GI50: 2.34 µM
  TGI: 4.16 µM
  CC50: 7.41 µM
[9]
  GI50: 4.36 µM
  TGI: 12.9 µM
  CC50: 51.3 µM
[10]
  GI50: 5.01 µM
  TGI: 17.4 µM
  CC50: 49 µM
[11]
  GI50: 2.23 µM
  TGI: 5.88 µM
  CC50: 83.2 µM
[12]
  GI50: 3.63 µM
  LC50 (concentration killing 50% of cells): > 100 µM
  TGI: > 100 µM
[13]
  GI50: 3.89 µM
  TGI: > 100 µM
  CC50: > 100 µM
[14]
  GI50: 4.46 µM
  LC50 (concentration killing 50% of cells): 79.4 µM
  TGI: 18.6 µM
[15]
  growth at 100 µM: 1%
[16]
  GI50: 3.38 µM
  TGI: 7.94 µM
  CC50: > 100 µM
[17]
  GI50: 2.75 µM
  LC50 (concentration killing 50% of cells): 58.9 µM
  TGI: 8.7 µM
[18]
  GI50: 2.81 µM
  TGI: 75.9 µM
  CC50: > 100 µM
[19]
  GI50: 4.78 µM
  TGI: 24.5 µM
  CC50: > 100 µM
[20]
  GI50: 7.24 µM
  LC50: > 100 µM
  TGI: > 100 µM
[21]
  GI50: 5.88 µM
  LC50 (concentration killing 50% of cells): 61.6 µM
  TGI: 21.9 µM
[22]
  GI50: 11.2 µM
  TGI: 26.9 µM
  CC50: 63.1 µM
[23]
  growth at 100 µM: 0%
[24]
  GI50: 4.36 µM
  TGI: > 100 µM
  CC50: > 100 µM
[25]
  GI50: 2.29 µM
  LC50: 66.1 µM
  TGI: 6.02 µM
[26]
  GI50: 13.5 µM
  TGI: 60.2 µM
  CC50: > 100 µM
[27]
  GI50: 2.08 µM
  LC50 (concentration killing 50% of cells): 6.54 µM
  TGI: 4.46 µM
